Experimental data from patent US20020098186A1, “Use of endothelin inhibitors for treatment or prevention of fibrotic disorders” (priority 1999, published 2002).

What was measured:
[1] = Clinical chemical serum parameters in BDO and sham-operated rats; format: in vivo, rat; details: for ALP / ALT / AST / Bili (total bilirubin) / γGT: serum, mean ± SD
Description: (§1) Female adult wistar rats, average weight 206±19 g, underwent the following microsurgical procedure under an operating microscope (OPMI 6-2, Zeiss, Germany) (B. Gerling, M. Becker, J. Waldschmidt, D. Schuppan (1996). J. Hepatol. 25:79-84; G. Boigk, L. Stroedter, H. Herbst H, et al. (1997). Hepatology 26:643-639.): 1. midline abdominal incision following anaesthesia with 100 mg/kg ketamine-hydroochloride (Ketanest®, Parke-Davis, Germany) and 10 mg/kg 5,6-dihydro-2-(2,6-xylidino)-4H-1,3-thiazine-hydrochloride (Rompun®, Bayer, Germany); 2. dissection of the common bile duct, insertion of a teflon catheter (Abbocath -T 26 G, venisystems, U.S.A.) and placement of a distal complete and a proximal incomplete ligature with 5-0 silk (Permahand , Ethicon, Germany); 3. retrograde injection of sodium-amidotrizoate (Ethibloc®, Ethicon Germany) at a dose of 0.02 ml/100 g body weight; 4. removal of the catheter, closure of the proximal ligature, scission of the bile duct between the ligatures and wound closure. After bile duct occlusion (BDO), animals received normal chow (Altromin®, Lage, Germany) and were allowed free access to water. […] The following therapeutic groups were formed: 1. BDO and LU at 80 mg/kg/d for 6 weeks (BDO 80/1-6:n=20); 2. BDO and LU at 80 mg/kg/d from week 4-6 of BDO (BDO 80/4-6:n=20); 3. […]
Standard laboratory parameters were measured by our in-hospital clinical chemical department, using an automated analyser (BM/Hitachi 747). The aminoterminal propeptide of procollagen type III (PIIINP) was determined using a sequential saturation radioimmunoassay based on PIINP from rat, a monospecific rabbit antiserum to rat PIIINP and a goat antiserum to rabbit IgG, using a previously described procedure (B. Gerling, M. Becker, J. Waldschmidt, D. Schuppan (1996). J. Hepatol. 25:79-84; G. Boigk, L. Stroedter, H. Herbst H, et al. (1997). Hepatology 26:643-649; d. Schuppan, J. M. Dumont, K. Y. Kim, et al. (1986). J. Hepatol. 3:27-37.). Inter- and intra-assay coefficients of variation were 12% and 5% for a normal and 4% and 3% for a pathological serum sample, resp.

[2] = tested on: procollagen α1(I) RNA; assay: Multiprobe RNAse protection assay of liver RNA, procollagen α1(I); format: in vivo, rat; details: BDO rats, LU 80 mg/kg/d for 6 weeks; relative to GAPDH; p<0.05
Description: (§2) Plasmids encoded predescribed regions of the rat procollagen α1 (I) and […] (GAPDH) genes, encompassing 230 bp (Bam HI/Rsal sites) and 102 bp (position 335-437), resp. (44, 45). The rat tissue inhibitor of metalloproteinase-1 (TIMP-1) probe (position 176-439) was prepared by RT-PCR according to the published sequence (J. P. Iredale, R. C. Benyon, M. J. P. Arthur (1996). Hepatology 24:176-184.), cloned into pZErO-1 (Invitrogen, San Diego, Calif., U.S.A.) and confirmed by restriction enzyme analysis. Preparation of riboprobes: The cDNA templates were linearized with appropriate restriction endonucleases. […] Riboprobes were purified by electrophoresis through a denaturing polyacrylamide gel and the radioactivity of eluted probes were measured by liquid scintillation counting. […] Autoradiographic signals were analyzed with the public domain NTH Image Program. The procollagen α1(I) and TIMP-1 RNA signals were normalized to the signal of GAPDH RNA and expressed as relative abundance (arbitrary units). 10 liver samples each of negative controls, of untreated rats with BDO and of rats with BDO that received LU at 80 mg/kg/d were analyzed.

[3] = tested on: TIMP-1 RNA; assay: Multiprobe RNAse protection assay of liver RNA, TIMP-1; format: in vivo, rat; details: BDO rats, LU 80 mg/kg/d for 6 weeks; relative to GAPDH; p<0.05
Description: as §2

[4] = Body and organ weights of rats with bile duct occlusion (BDO) or sham operation; format: in vivo
Description: as §1
Early mortality (within 1 h to 3 days) in rats with BDO was due to local infection and amounted to 9%. […] After 6 weeks rats were sacrificed under ketanest(rompun-anaesthesia by puncture of the right ventricle and exsanguination. Heart, liver, spleen and kidneys were weighed, and 1-2 g pieces of the left and the right liver lobes fixed in 4% formalin for histology and hydroxyproline (HYP) determinations.

[5] = BDO/LU 80/1-6 (n = 10): BDO, LU 80 mg/kg/d week 1-6
[6] = BDO/LU 80/4-6 (n = 14): BDO, LU 80 mg/kg/d week 4-6
[7] = Sham/LU: sham operation, LU 80 mg/kg/d for 6 weeks, n = 10
[8] = BDO/LU 80/1-6: BDO, LU 80 mg/kg/d week 1-6, n = 10
[9] = BDO/LU 80/4-6: BDO, LU 80 mg/kg/d week 4-6, n = 14

COc1cc(OC)nc(O[C@H](C(=O)O)C(OC)(c2ccccc2)c2ccccc2)n1 [LU]
Clinical chemical serum parameters (AST, ALT, alkaline phosphatase, gamma glutamyltranspeptidase, total bilirubin, creatinine) ([1]; all groups with BDO): did not differ between all groups with BDO | ALP ([1]; headed BDO/LU 80/1-6 (n = 20)): 256.1 ± 49.6 U/L | ALT ([1]; headed BDO/LU 80/1-6 (n = 20)): 22 ± 8.4 U/L | AST ([1]; headed BDO/LU 80/1-6 (n = 20)): 198 ± 56.7 U/L | Bili (total bilirubin) ([1]; headed BDO/LU 80/1-6 (n = 20)): 189.5 ± 43.2 µmol/L | γGT ([1]; headed BDO/LU 80/1-6 (n = 20)): 15 ± 6.4 U/L | ALP [1, 5]: 230.7 ± 55.7 U/L | ALT [1, 5]: 23.6 ± 10.8 U/L | AST [1, 5]: 160.9 ± 78.5 U/L | Bili (total bilirubin) [1, 5]: 171.3 ± 49.5 µmol/L | γGT [1, 5]: 32.7 ± 24.4 U/L | ALP [1, 6]: 253.1 ± 75.8 U/L | ALT [1, 6]: 40.2 ± 52 U/L | AST [1, 6]: 229 ± 78.5 U/L | Bili (total bilirubin) [1, 6]: 209.9 ± 48.9 µmol/L | γGT [1, 6]: 28.1 ± 26.4 U/L | ALP [1, 7]: 85.3 ± 17.9 U/L | ALT [1, 7]: 21.7 ± 3.3 U/L | AST [1, 7]: 36.4 ± 7.9 U/L | Bili (total bilirubin) [1, 7]: 1.6 ± 0.5 µmol/L | γGT [1, 7]: 0.3 ± 0.5 U/L | Reduction of procollagen α1(I) mRNA level [2]: 35% | Reduction of TIMP-1 mRNA level [3]: 55% | B.W. [4, 8]: 293.0 ± 32.89 g | Liver W. [4, 8]: 24.73 ± 4.47 g | Spleen W. [4, 8]: 1.78 ± 0.47 g | B.W. [4, 9]: 259.1 ± 30.2 g | Liver W. [4, 9]: 23.01 ± 5.33 g | Spleen W. [4, 9]: 1.62 ± 0.46 g | B.W. [4, 7]: 305.8 ± 23.40 g | Liver W. [4, 7]: 11.98 ± 1.95 g | Spleen W. [4, 7]: 0.73 ± 0.08 g | Liver and spleen weights ([4]; rats with BDO): reduced liver and spleen weights dose-dependently | Weights of kidneys, heart and lungs ([4]; rats with BDO, high and low dose groups (not shown)): neither nor the low dose groups demonstrated significant differences
